Patent US20100280046A1, “Methods and Compositions for Treating Prostate Cancer, Benign Prostatic Hypertrophy, Polycystic Ovary Syndrome and Other Conditions” (DIOBEX, INC., priority 2006, published 2010)
“Also recorded” adds a separate entry of the source.

How the values were obtained:
[1] = test system: plasma testosterone; experiment: Time course of depression of plasma testosterone in rats after 200 mg/kg (FIG. 2); format: in vivo; settings: Sprague-Dawley rats, 200 mg/kg oral gavage, indicated times after dosing
Method: The rats were maintained and dosed as described above. Plasma was prepared at the indicated times after dosing and the concentration of testosterone in the plasma determined by ELISA.

[2] = test system: 17,20 lyase; settings: cited from earlier work
[3] = oral racemic ketoconazole, healthy subjects; cited from earlier work
[4] = test system: plasma testosterone; experiment: Plasma testosterone in rats four hours after oral gavage of increasing dosage (FIG. 1); format: in vivo; settings: Sprague-Dawley rats, in olive oil
Method: The concentration of testosterone in the plasma of Sprague-Dawley rats was determined four hours after delivery by oral gavage of increasing dosage of the racemate or of the indicated enantiomer.
The effect of ketoconazole and the ketoconazole enantiomers on testosterone levels in the plasma of Sprague Dawley rats was determined. […] To generate the results shown in FIG. 1, fifteen groups (ten per group) of rats were used. The rats were maintained on a 14/10 hour light/dark cycle and allowed free access to food and water. Each rat was dosed with the indicated drug (or vehicle) at the indicated dosage via a gastric tube. All of the rats were dosed between 2.00 and 3.00 pm and were sacrificed four hours later (between 6.00 and 7.00 pm). Plasma was prepared and the concentration of testosterone determined by an enzyme linked immuno assay (ELISA).

[5] = Plasma levels of the two ketoconazole enantiomers in patients after fourteen daily doses (FIG. 4, FIG. 5); format: in vivo, humans; settings: for hepatic extraction (from the plasma into the liver): inferred from plasma profiles in patients; for plasma level (pharmacokinetic profile) of the enantiomer after racemic ketoconazole: 400 mg racemic ketoconazole (200 mg 2S,4R and 200 mg 2R,4S) once per day
Method: Each patient was given the appropriate drug once per day in the evening. After fourteen daily doses the level of each of the two enantiomers present in the plasma of the patients was determined at the indicated time points following the last dose of drug.
Assays were established and validated using isolated and purified enantiomers. […] Solid phase extraction (SPE) and HPLC/MS/MS were used to determine the concentration of the enantiomers 2R,4S and 2S,4R, of Ketoconzaole from human plasma. 2R,4S and 2S,4R Ketoconzaole were extracted from the plasma sample using SPE, 96 well plates packed with a reversed phase C8 extraction beds from Varian (Lake Forest, Calif.). An aliquot of the extract was injected onto a HPLC/MS/MS triple quadrupole mass spectrometer (Sciex API3000). A Chiralpak AD-H, 5 μm HPLC column (2.1×150 mm) from Chiral Technologies (West Chester, Pa.) preceded by an AD-H guard column (0.4×1.0 cm) were used to separate 2R,4S and 2S,4R Ketoconzaole and the internal standard terconazole. The peak area of multiple product ions (531.4→82.2, […], and 531.4→489.5) of the enantiomers of Ketoconzaole were summed and measured against the peak area of the product ion of the internal standard (terconazole, 534.5-÷ 219.3). Quantitation was performed using 1/x^2 weighted linear least squares regression line generated from similarly extracted plasma calibration samples ranging from 5 to 1000 ng/mL. All plasma was preserved with K3EDTA.

[6] = ketoconazole treated patients; cited from earlier work
[7] = accelerated in the presence of water and elevated temperatures; cited from earlier work
[8] = isolated guinea pig hearts; cited from earlier work
[9] = target: T1, 17α hydroxylase (Homo sapiens, UniProt P05093); settings: cited from earlier work
T1 sequence (P05093 1-508): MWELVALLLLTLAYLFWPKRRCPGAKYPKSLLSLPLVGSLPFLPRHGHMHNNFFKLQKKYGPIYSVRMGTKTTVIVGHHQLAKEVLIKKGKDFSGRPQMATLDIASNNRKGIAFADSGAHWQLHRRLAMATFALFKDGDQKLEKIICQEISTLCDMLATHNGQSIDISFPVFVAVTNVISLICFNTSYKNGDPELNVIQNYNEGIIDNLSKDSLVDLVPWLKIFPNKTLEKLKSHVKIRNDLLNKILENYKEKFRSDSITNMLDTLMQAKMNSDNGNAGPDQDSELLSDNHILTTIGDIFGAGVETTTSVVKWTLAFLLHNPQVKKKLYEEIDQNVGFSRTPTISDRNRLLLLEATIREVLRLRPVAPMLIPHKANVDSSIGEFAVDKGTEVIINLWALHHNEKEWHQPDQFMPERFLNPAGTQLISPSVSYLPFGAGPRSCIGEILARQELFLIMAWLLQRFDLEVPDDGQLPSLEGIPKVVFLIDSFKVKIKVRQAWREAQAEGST

[10] = patients, after fourteen daily doses

Row | hepatic extraction (from the plasma into the liver) [5] | SMILES | time course of depression of plasma testosterone ([1]; 200 mg/kg) | time course of depression of plasma testosterone ([1]; listed as 2S,4R, 200 mg/kg) | potency toward 17,20 lyase [2] | plasma level of the enantiomer after racemic ketoconazole [3] | lowering of plasma testosterone [4] | plasma level (pharmacokinetic profile) of the 2S,4R enantiomer given alone ([5]; patients, 200 mg 2S,4R enantiomer once per day, after fourteen daily doses) | plasma level (pharmacokinetic profile) of the enantiomer after racemic ketoconazole [5, 10] | time course of depression of plasma testosterone [1] | level of liver specific enzymes in the serum [6] | degradation (oxidation) [7] | risk of cardiac arrhythmia [8] | inhibition of 17α hydroxylase [9]
1 | relatively low hepatic extraction | CC(=O)N1CCN(c2ccc(OC[C@@H]3CO[C@@](Cn4ccnc4)(c4ccc(Cl)cc4Cl)O3)cc2)CC1 [2S,4R enantiomer] | more effective at lowering testosterone than either racemic ketoconazole or the other cis enantiomer present in racemic ketoconazole (2R,4S) | significantly more efficacious than 2R,4S with respect to reducing testosterone levels | more potent toward 17,20 lyase than is the other enantiomer 2R,4S | approximately three times greater than that of the 2R,4S enantiomer | more effective at lowering testosterone than any either racemic ketoconazole or the 2R,4S enantiomer of ketoconazole; also recorded: significantly more efficacious than both the ketoconazole racemate and the other cis enantiomer (2R,4S) | very similar when given alone; also recorded: approximately the same as the plasma level of the 2S,4R enantiomer when patients are given both 200 mg 2S,4R and 200 mg 2R,4S | significantly greater than the pharmacokinetic profile of the 2R,4S enantiomer | – | – | – | – | –
2 | – | CC(=O)N1CCN(c2ccc(OCC3COC(Cn4ccnc4)(c4ccc(Cl)cc4Cl)O3)cc2)CC1 (racemic) [racemic ketoconazole, 1-acetyl-4-[4-[[2-(2,4-dichlorophenyl)-2-[(1H-imidazol-1-yl)-methyl]-1,3-dioxolan-4-yl]methoxy]phenyl]piperazine] | – | – | inhibit | – | dose dependent effect | – | – | testosterone levels recover following dosing | increase in these enzymes has been noted | can undergo degradation (oxidation) | may be associated with an increased risk of cardiac arrhythmia | inhibit
3 | more efficient extraction | CC(=O)N1CCN(c2ccc(OC[C@H]3CO[C@](Cn4ccnc4)(c4ccc(Cl)cc4Cl)O3)cc2)CC1 (single isomer, unassigned) [2R,4S enantiomer, reference compound] | – | – | – | – | – | – | approximately one third of the plasma concentration of the 2S,4R enantiomer | – | – | – | – | –
